Source: ChEMBL document CHEMBL5036318, “Synthesis and Biological Evaluation of Phosphoester and Phosphorothioate Prodrugs of STING Agonist 3',3'-c-Di(2'F,2'dAMP)” (J Med Chem, 2021)

What was measured:
[1] = target: T1, Stimulator of interferon genes protein (Homo sapiens, UniProt Q86WV6); experiment: Activation of wild-type human STING expressed in digitonin treated HEK293T cells co-expressing IRF3-activated ISRE assessed as IRF3 reporter activation by luciferase reporter gene assay; type: cell-based
[2] = target: Stimulator of interferon genes protein (Homo sapiens, UniProt Q86WV6, G230A/R293Q/R71H); experiment: Activation of human STING HAQ mutant expressed in digitonin treated HEK293T cells co-expressing IRF3-activated ISRE assessed as IRF3 reporter activation by luciferase reporter gene assay; type: cell-based
[3] = target: Stimulator of interferon genes protein (Homo sapiens, UniProt Q86WV6, G230A/R293Q); experiment: Activation of human STING QA mutant expressed in digitonin treated HEK293T cells co-expressing IRF3-activated ISRE assessed as IRF3 reporter activation by luciferase reporter gene assay; type: cell-based
[4] = Activation of human STING Q mutant expressed in digitonin treated HEK293T cells co-expressing IRF3-activated ISRE assessed as IRF3 reporter activation by luciferase reporter gene assay; type: cell-based; settings: HEK-293T
[5] = target: T1, Stimulator of interferon genes protein; experiment: Activation of wild-type human STING expressed in HEK293T cells co-expressing IRF3-activated ISRE assessed as IRF3 reporter activation measured after 30 mins by luciferase reporter gene assay; type: cell-based
[6] = target: T1, Stimulator of interferon genes protein; experiment: Activation of wild-type human STING expressed in digitonin treated human THP1-Dual cells co-expressing IRF3-activated ISRE assessed as IRF3 reporter activation measured after 30 mins by luciferase reporter gene assay; type: cell-based
[7] = target: T1, Stimulator of interferon genes protein; experiment: Activation of wild-type human STING expressed in human THP1-Dual cells co-expressing IRF3-activated ISRE assessed as IRF3 reporter activation measured after 7 hrs by luciferase reporter gene assay; type: cell-based
[8] = Induction of INF-alpha production in healthy human PBMC incubated for 16 hrs; type: functional, tissue-based
[9] = Induction of INF-gamma production in healthy human PBMC incubated for 16 hrs; type: functional, tissue-based
[10] = Induction of TNF-alpha production in healthy human PBMC incubated for 16 hrs; type: functional, tissue-based
[11] = target: T1, Stimulator of interferon genes protein; experiment: Binding affinity to wild type STING (unknown origin) assessed as change in melting temperature by differential scanning fluorimetry; settings: filed as activator
cells = settings: Homo sapiens, HEK-293T
Description: Activation of human STING REF mutant expressed in digitonin treated HEK293T cells co-expressing IRF3-activated ISRE assessed as IRF3 reporter activation by luciferase reporter gene assay

[12] = Drug uptake in human THP1-Dual cells at 1.25 uM incubated for 2 hrs by HPLC-LS analysis; type: ADME, cell-based
[13] = Drug metabolism in human THP1-Dual cells assessed as 3',3'-c-di(2'F,2'dAMP) metabolite formation measured after 2 hrs by HPLC analysis; type: ADME, cell-based
[14] = Drug metabolism in human THP1-Dual cells assessed as 3',3'-c-di(2'F,2'dAMP) metabolite formation measured after 24 hrs by HPLC analysis; type: ADME, cell-based
[15] = target: T1, Stimulator of interferon genes protein; experiment: Binding affinity to human STING expressed in […] cells assessed as change in melting temperature by Cell-based assay; settings: HEK293T, filed as activator
[16] = Drug uptake in human THP1-Dual cells at 125 uM incubated for 24 hrs by HPLC-LS analysis; type: ADME, cell-based
[17] = Drug uptake in human THP1-Dual cells at extra cellular concentration incubated for 24 hrs by HPLC-LS analysis; type: ADME, cell-based
[18] = target: T1, Stimulator of interferon genes protein; experiment: Activation of wild-type human STING expressed in HEK293T cells co-expressing IRF3-activated ISRE assessed as IRF3 reporter activation measured after 7 hrs by luciferase reporter gene assay; type: cell-based
[19] = Potency index, ratio of test compound EC50 to prodrug EC50 for induction of INF-alpha production in healthy human PBMC incubated for 16 hrs; type: functional
[20] = Potency index, ratio of test compound EC50 to prodrug EC50 for induction of INF-gamma production in healthy human PBMC incubated for 16 hrs; type: functional
[21] = Stability in human plasma assessed as half life; type: ADME, cell-free
[22] = Stability in mouse plasma assessed as half life; type: ADME, cell-free
[23] = Potency index, ratio of test compound EC50 to prodrug EC50 for induction of TNF-alpha production in healthy human PBMC incubated for 16 hrs; type: functional

Stimulator of interferon genes protein (Homo sapiens, UniProt Q86WV6, G230A/R293Q), sequence (Q86WV6 whole entry G230A/R293Q): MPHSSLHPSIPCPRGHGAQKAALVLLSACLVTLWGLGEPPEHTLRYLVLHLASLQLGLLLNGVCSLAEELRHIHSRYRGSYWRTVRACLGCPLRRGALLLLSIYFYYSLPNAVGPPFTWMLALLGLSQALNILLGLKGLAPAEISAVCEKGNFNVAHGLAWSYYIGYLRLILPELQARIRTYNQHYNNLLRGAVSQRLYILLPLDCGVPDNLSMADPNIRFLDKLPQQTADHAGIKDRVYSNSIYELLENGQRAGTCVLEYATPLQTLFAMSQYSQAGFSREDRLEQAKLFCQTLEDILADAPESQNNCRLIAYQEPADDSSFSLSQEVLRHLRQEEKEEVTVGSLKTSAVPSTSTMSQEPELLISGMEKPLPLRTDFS
Stimulator of interferon genes protein (Homo sapiens, UniProt Q86WV6, G230A/R293Q/R71H), sequence (Q86WV6 whole entry R71H/G230A/R293Q): as the sequence (Q86WV6 whole entry G230A/R293Q) above, with R71H counted along it
T1 sequence (Q86WV6 whole entry): as the sequence (Q86WV6 whole entry G230A/R293Q) above, with A230G, Q293R counted along it

Row | SMILES | EC50 [1] | EC50 [2] | EC50 [3] | EC50 [4] | EC50 [5] | EC50 [6] | EC50 [7] | EC50 [8] | EC50 [9] | EC50 [10] | ΔTm [11] | EC50 (cells) | ΔTm [15] | also measured
1 | Nc1ncnc2c1ncn2[C@@H]1O[C@@H]2CO[P@@](=O)(S)O[C@H]3[C@@H](F)[C@H](n4cnc5c(N)ncnc54)O[C@@H]3CO[P@@](=O)(S)O[C@H]2[C@H]1F | 40 nM | 80 nM | 40 nM | 80 nM | 7020 nM | 3560 nM | 360 nM | 38700 nM | 6080 nM | 9370 nM | 15.9 °C | 130 nM | – | –
2 | [3H]c1nc2c(N)ncnc2n1[C@@H]1O[C@@H]2CO[P@@](=O)(OCOC(=O)C(C)(C)C)O[C@H]3[C@@H](F)[C@H](n4c([3H])nc5c(N)ncnc54)O[C@@H]3CO[P@@](=O)(OCOC(=O)C(C)(C)C)O[C@H]2[C@H]1F | – | – | – | – | – | – | – | – | – | – | – | – | – | Drug uptake [12]: Active; Drug metabolism [13]: Metabolite_Detected; Drug metabolism [14]: Metabolite_Notdetected
3 | Nc1ncnc2c1ncn2[C@@H]1O[C@@H]2CO[P@@](=O)(S)O[C@H]3[C@@H](F)[C@H](n4cnc5c(N)ncnc54)O[C@@H]3CO[P@](=O)(S)O[C@H]2[C@H]1F | 20 nM | 50 nM | – | 210 nM | 520 nM | 3030 nM | 310 nM | 17700 nM | 11200 nM | 7290 nM | 11.2 °C | 360 nM | 11.2 °C | –
4 | [3H]c1nc2c(N)ncnc2n1[C@@H]1O[C@@H]2COP(=O)(O)O[C@H]3[C@@H](F)[C@H](n4c([3H])nc5c(N)ncnc54)O[C@@H]3COP(=O)(O)O[C@H]2[C@H]1F | – | – | – | – | – | – | – | – | – | – | – | – | – | Drug uptake [16]: Not Active; Drug uptake [17]: Not Active
5 | CC(C)(C)C(=O)OCO[P@@]1(=O)OC[C@H]2O[C@@H](n3cnc4c(N)ncnc43)[C@H](F)[C@@H]2O[P@](=O)(OCOC(=O)C(C)(C)C)OC[C@H]2O[C@@H](n3cnc4c(N)ncnc43)[C@H](F)[C@@H]2O1 | – | – | – | – | 70 nM | 180 nM | 50 nM | 440 nM | 70 nM | 240 nM | – | – | – | EC50 [18]: 40 nM; Ratio EC50 [19]: 115; Ratio EC50 [20]: 110; half-life [21]: 1 h; half-life [22]: < 2 min
6 | [3H]c1nc2c(N)ncnc2n1[C@@H]1O[C@@H]2CO[P@@](=O)(OCOC(=O)C(C)(C)C)O[C@H]3[C@@H](F)[C@H](n4c([3H])nc5c(N)ncnc54)O[C@@H]3CO[P@](=O)(OCOC(=O)C(C)(C)C)O[C@H]2[C@H]1F | – | – | – | – | – | – | – | – | – | – | – | – | – | Drug uptake [12]: Active; Drug metabolism [13]: Metabolite_Detected; Drug metabolism [14]: Metabolite_Notdetected
7 | Nc1ncnc2c1ncn2[C@@H]1O[C@@H]2CO[P@@](=O)(S)O[C@H]3[C@@H](F)[C@H](n4cnc5c(N)ncnc54)O[C@@H]3COP(=O)(O)O[C@H]2[C@H]1F | 40 nM | 100 nM | 40 nM | 100 nM | – | – | – | – | – | – | 14.7 °C | – | 14.7 °C | –
8 | Nc1ncnc2c1ncn2[C@@H]1O[C@@H]2CO[P@](=O)(S)O[C@H]3[C@@H](F)[C@H](n4cnc5c(N)ncnc54)O[C@@H]3CO[P@](=O)(S)O[C@H]2[C@H]1F | 170 nM | 880 nM | 260 nM | 4070 nM | 2280 nM | 12100 nM | 7790 nM | 29600 nM | 9870 nM | 26800 nM | 5.5 °C | 8700 nM | – | –
9 | Nc1ncnc2c1ncn2[C@@H]1O[C@@H]2CO[P@](=O)(S)O[C@H]3[C@@H](F)[C@H](n4cnc5c(N)ncnc54)O[C@@H]3COP(=O)(O)O[C@H]2[C@H]1F | 7 nM | 130 nM | 70 nM | 450 nM | – | – | – | – | – | – | 8.9 °C | 920 nM | 8.9 °C | –
10 | CC(C)(C)C(=O)OCO[P@]1(=O)OC[C@H]2O[C@@H](n3cnc4c(N)ncnc43)[C@H](F)[C@@H]2O[P@](=O)(OCOC(=O)C(C)(C)C)OC[C@H]2O[C@@H](n3cnc4c(N)ncnc43)[C@H](F)[C@@H]2O1 | – | – | – | – | 30 nM | 110 nM | 30 nM | 220 nM | 60 nM | 110 nM | – | – | – | EC50 [18]: 20 nM; Ratio EC50 [19]: 234; Ratio EC50 [20]: 148; Ratio EC50 [23]: 279; half-life [21]: 1.17 h; half-life [22]: < 2 min
